In patent US10604739B2, “Cardiomyocyte production” (Cellular Dynamics International, Inc., priority 2009, dated 2020):

Tested on: iPS6.1-MRB cells
Assay: iPS-MRB 1 L spinner qualification runs with and without HGF
Type: cell-based, human
Conditions: for CM/L (millions) / Purity (% RFP+): +HGF, 1 L spinner flask
Experimental: IPS-MRB cells were maintained on Matrigel™ in TeSR medium (from Stem Cell Technologies) no later than when they would normally be ready to be passaged. IPS cells were grown in T-150 flasks throughout this example, but can be scaled for starting cells in other culture formats. Five T-150 flasks of iPS cells were harvested: media were aspirated and cells were incubated with 12 mL room temperature TrypLe™ (Invitrogen), a recombinant typsin-like enzyme, at 37° C. for 7 minutes. The cells were then transferred to five 50 ml conical tubes (one tube for each T-150 flask) containing 12 ml DMEM/F12 (GIBCO) with 10% fetal calf serum (FCS) (Chemicon). The cells were then pelleted at 1200 rpm for 5 minutes and supernatant aspirated. The pellet was resuspended in 10 mL aggregate promotion medium (TeSR medium containing 25 μg/ml Gentamicin, 1 μM H1152, and with or without 50 ng/ml human recombinant HGF). The resuspended pellet were combined into a single 250 ml conical tube (allowing volume for later dilution), if necessary. Cells were counted using CEDEX HiRES cell counter and then diluted to 1.0×10^6 cells/mL. Each 500 mL diluted cell stock was dispensed into one 1 L spinner flask (leaving room in spinner flasks for later dilution) and the flasks were placed on magnetic stir platform with a speed of 50 RPM (both side caps were loosed by two full turns to allow gas transfer).
On the next day (Day 1), flasks containing the cells were set in cell culture hood and suspended aggregate allowed to settle to the bottom of the flasks for 30 minutes. The spent media were aspirated using a 2 mL aspirating pipet with approximately 100 mL left in the flasks (if films of cells form on bottom after setting, shake flask back and forth in each direction to break them up before adding medium). Aggregate transition medium (50% TeSR medium, 45% DMEM containing GlutaMax™, 5% ES-qualified FCS, 25 μg/ml Gentamicin, 1 μM H1152, and with or without 50 ng/ml HGF) were added to the flasks using Pipeline machine to bring to the original volume. The flasks were returned to the stirring platform inside a 7% CO2 incubator and the agitator was started to operate at 50±1 RPM (both side caps were loosed by two full turns to allow gas transfer).
On Day 2, flasks containing the cells were set in cell culture hood and suspended aggregate allowed to settle to the bottom of the flasks for 15 minutes. The spent media were aspirated with approximately 100 mL left in the flasks. Aggregate suspension were gently mixed in flasks, and cardiac induction medium (90% TeSR medim, 10% ES-qualified FCS, 25 μg/ml Gentamicin, 50 ng/ml human recombinant bFGF, and with or without 50 ng/ml human recombinant HGF) were added to each flask to 1 L (2× dilution) with Pipeline machine. The flasks were returned to the stirring platform inside a 7% CO2 incubator and the agitator was started to operate at 50±1 RPM (both side caps were loosed by two full turns to allow gas transfer).
On Day 3, flasks containing the cells were set in cell culture hood and suspended aggregate allowed to settle to the bottom of the flasks for 15 minutes. The spent media were aspirated with approximately 100 mL left in the flasks. Spinner flasks were shaken back and forth to break large clumps. Cardiac induction medium were added back to each flask to bring back to the original volume for Days 3-7; cardiac maintenance medium were exchanged instead for Days 8, 10, 12. After every media exchange, the flasks were returned to the stirring platform inside a 7% CO2 incubator and the agitator was started to operate at 50±1 RPM (both side caps were loosed by two full turns to allow gas transfer).
Cell cultures were analyzed on Day 14 by total cell counting per flask at harvest, cTNT or RFP purity at harvest. Aggregate count was also carried on Day 2 and final stage and aggregate pictures were taken.
Three qualification runs were performed to confirm at large scale and with iPS6.1-MRB cells that removal of HGF has no measurable effect. […]

What does the source list for “HGF: human recombinant HGF (hepatic growth factor), R&D systems”?
Effect of HGF addition on yields ("normal" run, 1 L spinner): no effect; CM/L (millions) (Run #1 (Jun. 6, 2009)): 48.9 millions; Purity (% RFP+) (Run #1 (Jun. 6, 2009)): 6.6%; CM/L (millions) (Run #2 (Jun. 10, 2009)): 17.5 millions; Purity (% RFP+) (Run #2 (Jun. 10, 2009)): 3.7%; CM/L (millions) (Run #3 (Jun. 14, 2009)): 10.0 millions; Purity (% RFP+) (Run #3 (Jun. 14, 2009)): 2.6%
